For one series, the system named is THP1. The series can be described thus: MTS cell proliferation assay, THP1. Particulars: Homo sapiens, THP-1, 96 hours. The class given is cell-based. Here is the method: (§1) Triplicate wells were set up for each condition.
The assays were carried out in a blinded fashion.

For a further series, the target named is T1, DHODH (Homo sapiens, UniProt Q02127).
T1 construct: made in house
The series can be described thus: DHODH enzymatic assay (DCIP reduction). Format: biochemical. Here is the method:
DHODH Enzymatic Assay: DHODH activity was determined at 25° C. following the reduction of 2,6-dichloroindophenol sodium salt (DCIP) at 600 nm (ε=18 800 M^−1 cm^−1) on a spectrophotometer. The reaction medium used contained 50 mM Tris-HCl, pH 8.0, 0.1% Triton X-100, 0.1 mM LDHO, 0.025 mM CoQ1, and 0.06 mM DCIP. The reaction was started by addition of the enzyme. The inhibitory potency of the compounds was evaluated by measuring the initial velocity of the reaction either in the absence or in the presence of the compounds at the indicated concentrations. The DHODH enzyme used was the recombinant human enzyme prepared as previously described (Helene Munier-Lehmann, et al., J. Med. Chem. 2015, 58:860-877).

In series [1] the test system is AML cell lines (MOLM13, MV4-11, OCI-AML3). The series can be described thus: Formal synergy analysis (Combenefit, BLISS) with MDM2 inhibitor AMG-232. Format: cell-based. Particulars: Cpd3 0-10 μM with AMG-232 0-10 μM. Here is the method: FIGS. 6D-6F show formal synergy analysis following treatment of different cell-lines (as indicated below) with a representative disclosed compound, Cpd3 (0-10 μM), in the presence or absence of an MDM2 inhibitor, AMG-232 (0-10 μM). The formal synergy analysis was carried out using the Combenefit analysis program (Cambridge Research UK, Cambridge Institute, University of Cambridge, United Kingdom; see also Di Veroli G Y, et al. Bioinformatics. 2016; 32:2866-2868). Combenefit analysis software uses the Loewe, Bliss, and HSA (Highest Single Agent) models to generate surface analyses with statistical significance and global metrics/scores. Data shown for the cell-lines in FIGS. 6D-6F were obtained using the BLISS analysis.

For a further series, the system named is MV4-11. Nature of the series: MTS cell proliferation assay, MV4-11. Format: cell-based. Particulars: for IC50: Homo sapiens, MV4-11, MTS.
The test system of another series is primary human AML cells. Nature of the series: Cytospin slides and Wright-Giemsa staining for differentiation. The class given is cell-based. Particulars: 1 μM, 14 days. Here is the method:
Cytospin slides and Wright-Giemsa staining for differentiation: Primary AML cells were solubilized from the methocult in the CFU assays. 150-300K cells were immobilized onto microscope slides and stained with Wright-Giemsa stain. Differentiated myeloid cells were recognized by the typical morphological changes associated with early neutrophil differentiation including a characteristic multi-lobed or kidney bean shaped nucleus.
The primary AML cells following treatment with Cpd3 were analyzed by Wright-Giemsa stain. FIGS. 4A-4C show representative micrographs of primary human AML cells treated a representative disclosed compound, Cpd3, compared to a reference compound, brequinar, or vehicle treatment using methods as described herein below. Briefly, primary AML cells were treated with vehicle (DMSO), Cpd3 (1 μM) or brequinar (BQR, 1 μM) and plated in semi-solid methylcellulose-based media for 14 days. Cells were recovered from the methylcellulose and immobilized on glass slides and stained with a Wright-Giemsa stain (the more differentiated myeloid cells are indicated by the red arrows). The images are shown for vehicle treatment (FIG. 4A); Cpd3 treatment (FIG. 4B); and brequinar treatment (FIG. 4C). The primary human AML cells are from a representative patient sample. […]

For series [2], the system named is AML cell lines (MOLM13, MV4-11, THP1, HL-60, and OCI-AML3). Nature of the series: cells. Particulars: read-out: IC50 range for growth arrest in AML cell lines.
Protocol: MTS assay for cell growth/viability: Mitochondrial activity was measured to determine cell proliferation using an MTS assay (tetrazolium dye 3′[4,5-dimethylthiazol-2-yl]-2,5-diphenyl-tetrazolium bromide). Metabolically active cells convert MTS tetrazolium salt into a purple formazan product that is soluble in tissue culture medium. The amount of formazan measured at 490 nm absorbance is proportional to the number of proliferating cells. […] Triplicate wells were set up for each condition. At 96 hours, the MTS reagent was added and after approximately 4 hours the plates were read in a spectrophotometer. MTS assays in primary AML cells were done in a similar manner as the cell lines with the following changes: 100K cells were plated per well, and the MTS was done in the presence of an HS5 stromal cell line to support the in vitro growth of the primary cells. Primary cells were incubated with MTS for approximately 8-12 hours (varies with the samples) before reading the absorbance.
Cell proliferation assays were carried out using the MTS assay described herein using five AML cell lines (i.e., MOLM13, MV4-11, THP1, HL-60, and OCI-AML3) with varied genetic backgrounds. The assays were carried out in a blinded fashion.
The subject of series [3] is IDH2-R140Q/Flt3-ITD spleen cells (murine AML). Nature of the series: IDH2-R140Q/Flt3-ITD adoptive transfer model. The class given is in vivo, NCG mice. The source says:
Leukemic cells derived from a spontaneous murine model of Idh2/Flt3 AML, as reported by Shih et al (Cancer Discov. 7(5):494-505), were engrafted via adoptive transfer to generate an aggressive model of AML suitable for testing of therapeutic agents. Briefly, 6-8 week old mice harboring a heterozygous internal tandem duplication of FMS-like tyrosine kinase 3 (Flt3-ITD), a heterozygous point mutation of isocitrate dehydrogenase 2 (Idh2-R140Q) preceeded by a loxP flanked STOP codon, and Cre recombinase under the MX dynamin like GTPase 1 (Mx1) promoter were injected i.p. with polyinosinic:polycytidylic acid (poly(I:C)), activating Cre recombinase and inducing hematopoietic-specific expression of the Idh2-R140Q mutation. Spleen cells from these mice were collected after the development of lethal AML (defined by study removal criteria), typically 8-14 months post-poly(I:C) injection. 1×10^5 spleen cells from a single leukemic donor were engrafted by tail vein injection into 6 week old immune deficient NOD-Prkdc^em26Cd52//2rg^em26Cd22/NjuCrl mice (NCG; Charles River). At one week post-engraftment, animals were randomized to vehicle (5% EtOH, 10% Kolliphor EL, in PBS), enasidenib (100 mg/kg), and HOSU-3 (50 mg/kg) treatment arms and dosed by daily oral gavage. Personnel responsible for animal monitoring, dosing, and decisions regarding euthanasia were blinded to treatment arms. Survival was assessed using Kaplan-Meier analysis and p-values were determined using the log-rank test and adjusted using Holm's method.

Series [4] relates to murine AML cells (Tet2-KO/Flt3-ITD, IDH2-R140Q/Flt3-ITD). The series can be described thus: MTS assay on murine AML bone marrow cells ex vivo. Particulars: 0-10 μM, 96 hours. Format: cell-based, mice.
From the text: as §1
In particular, the in vivo effects of Cpd3 on the immune repertoire is important in view of previous reports describing DHODH inhibitors as having diverse effects on innate and cellular immune function. FIGS. 9A-9B show representative data for proliferation of murine AML cells in the presence of a representative disclosed compound, Cpd3, compared to a reference compound, brequinar (indicated as “BQR” in the figure). […] Briefly, bone marrow cells were isolated from leukemic Tet2-KO/Flt3-ITD mice (FIG. 9A; N=7) or leukemic IDH2-R140Q/Flt3-ITD mice (FIG. 9B; N=3) were treated ex vivo with Cpd3 or BQR (dose range 0-10 μM). Cell growth was determined at 96 hours relative to the vehicle (DMSO) control using a MTS cell proliferation assay as described herein below.
On the technique in general: Tetrazolium dyes change colour on reduction, which living cells bring about.

Data on one compound can be found in patent US11999697B2, “Methods and compositions for inhibition of dihydroorotate dehydrogenase” (OHIO STATE INNOVATION FOUNDATION, priority 2018, dated 2024).

Each structure is given as a SMILES string. Where two headings read alike, the source gives them in different places.

T1 sequence (Q02127 whole entry): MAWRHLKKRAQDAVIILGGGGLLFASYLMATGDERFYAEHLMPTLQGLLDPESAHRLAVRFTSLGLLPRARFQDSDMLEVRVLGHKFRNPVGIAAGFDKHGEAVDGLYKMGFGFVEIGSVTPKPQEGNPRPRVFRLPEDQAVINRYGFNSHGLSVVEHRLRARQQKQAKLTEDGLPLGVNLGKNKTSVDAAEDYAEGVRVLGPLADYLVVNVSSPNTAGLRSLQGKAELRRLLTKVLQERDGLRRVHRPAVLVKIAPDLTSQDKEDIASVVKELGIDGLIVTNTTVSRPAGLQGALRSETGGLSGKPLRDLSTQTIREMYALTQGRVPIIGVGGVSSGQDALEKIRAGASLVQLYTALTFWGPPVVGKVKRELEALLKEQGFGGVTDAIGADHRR

The IC50 is the concentration at which inhibition is half-maximal. As for `CCOc1ccc(-c2ccc(-c3cc(C(=O)O)c4cc(F)ccc4n3)cc2)cc1` [Cpd3, 2-(4′-ethoxy-[1,1′-biphenyl]-4-yl)-6-fluoroquinoline-4-carboxylic acid], the concentration for half-maximal inhibition (IC50) in the series with THP1 is 1.1 µM; at DHODH (range in parentheses, read-out: DHODH inhibition, IC50), 43 nM; with MV4-11 (96 hour, Table 7, read-out: 96 hour IC50 (nM) in MV-411 cell line), about 500 nM; in the series with MV4-11 (96 hours, read-out: IC50 (μM) at 96 hours, MV4-11), 670 nM; in series [2], 280 to 1100 nM. Moreover, the “DHODH inhibition, % inhibition” value at DHODH (compound concentration not given) was 97%. Besides, the “synergy with MDM2 inhibitor AMG-232” value in series [1] is “synergistic cell killing in AML cell lines”. The “rescue of cytotoxic effects by uridine” value with MV4-11 (0.25 or 0.5 μM compound, uridine 0 to 200 μM, 96 hours) is “rescued by growth in the presence of uridine”. Further, the “differentiation by Wright-Giemsa stain” value in the series with primary human AML cells is listed as “induces differentiation in primary human AML cells”. For the same compound, in series [3] (50 mg/kg once daily), the “survival compared to vehicle and enasidinib treatment groups” value was “significant improvement in survival”. In addition, in series [3] (daily oral gavage, Cpd3 50 mg/kg, enasidenib 100 mg/kg), the “Median survival” value came to 42 days. Moreover, in series [4], the “potency on murine leukemic cells ex vivo relative to BQR” value is recorded as “a log fold more potent than BQR”.
